Laboratory results taken from PubChem BioAssay (NCI).
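Protocol summary: plate cells (96-well), add compound at 5 concentrations, incubate 48 h, interpolate endpoints linearly. At the GI50, growth is halved. TGI marks complete inhibition of growth.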

Columns and labels:
Assay in all cases: NCI tumour cell line growth inhibition, 48 h
[1] = test system: PC-3 prostate
[2] = test system: KM20L2 colon
[3] = test system: LXFL 529 NSCLC
[4] = test system: 786-0 renal
[5] = test system: P388 leukemia
[6] = test system: P388/ADR leukemia
[7] = test system: SN12K1 renal

Compound | TGI [1] | TGI [2] | TGI [3] | TGI [4] | other results
N#Cc1c(NC(=S)NC(=O)c2ccccc2)nc2c(c1-c1ccccc1)CCCC2 | > 100 µM | – | – | – | –
CCC(C)C(=O)c1c(O)c(C/C=C(\C)CCC=C(C)C)c(O)c2c(C(O)CC)cc(=O)oc12 (configuration not stated) | – | 2.68 µM | 2.99 µM | – | –
Brc1ccccc1-c1ncc(-c2ccccc2)o1 | > 100 µM | – | – | – | –
O=[N+]([O-])c1cn[n+]([O-])c2ccccc12 | 23.3 µM | – | – | 12.3 µM | –
CC[n+]1c(/C=C/c2ccc(N(CCCl)CCCl)cc2)ccc2cc(NC(=O)/C=C/c3ccccc3)ccc21 | 1.09 µM | – | – | 3.22 µM | –
COc1cc(C2c3cc4c(cc3[C@@H](Nc3cccc(C(C)=O)c3)C3COC(=O)[C@H]23)OCO4)cc(OC)c1O (some centres not stated) | – | > 23.3 µM | – | – | TGI [5]: 0.254 µM; TGI [6]: 2.53 µM; TGI [7]: 4.61 µM
Cn1c(-c2ccc(/C=N\N3CCN(/N=C/c4ccc(-c5c[n+]6ccccc6n5C)cc4)CC3)cc2)c[n+]2ccccc12 | > 100 µM | – | – | 70.7 µM | –
COc1ccc(-c2cc(N3CCN(c4ccccc4)CC3)c(C#N)c(=O)o2)cc1 | – | > 100 µM | > 100 µM | – | –
COc1ccc(NC(=O)/C(=C/c2ccc(N(CCC#N)CCC#N)cc2)NC(=O)c2cc([N+](=O)[O-])ccc2Cl)cc1 | – | > 100 µM | > 100 µM | – | –
COc1ccc(NC(=O)/C(CC2=Nc3ccc([N+](=O)[O-])cc3NC2O)=N\NC(=O)C[N+](C)(C)C)c(OC)c1 (configuration not stated) | > 100 µM | – | – | 68.8 µM | –
NCc1ccc(C(=O)O)cc1 | > 100 µM | – | – | > 100 µM | –
Cc1nc2ccccc2c(=O)[nH]1 | – | > 100 µM | > 100 µM | > 100 µM | –
ClCc1c(Cl)c(Cl)c(Cl)c(CCl)c1Cl | 3.15 µM | – | – | – | GI50 [1]: 1.69 µM
NCc1ccccc1C1CSCSC1 | – | – | > 100 µM | – | –
Cc1ccc(S(N)(=O)=O)cc1 | > 1000 µM | – | – | > 1000 µM | –
CCO/N=[N+](\[O-])N(CC)CC | – | > 100 µM | > 100 µM | – | –
CC(C)C[P+](c1ccccc1)(c1ccccc1)c1ccccc1 | – | – | – | > 100 µM | –
CC(C)(Br)C1(O)CCCN1C(=O)c1ccccc1 (configuration not stated) | – | > 100 µM | > 100 µM | – | –
CCOC(=O)/C=C(\C)c1ccc(OC)cc1 | – | > 100 µM | > 100 µM | – | –
